Source: patent publication US7947738B2, “Bicyclic γ-amino acid derivative” (Daiichi Sankyo Company, Ltd., priority 2007, dated 2011)
Where a name gives a salt, the structure may show the parent alone. Read-outs that look alike come from different tables or passages of the source.

Assays:
[1] = target: T1, human Cacna2d1 (human calcium channel subunit α2δ1) (Homo sapiens, UniProt P54289); test: Cacna2d1/GBP binding reaction inhibitory activity (3H-GBP binding to human Cacna2d1-expressing cell membrane fraction); settings: concentration inhibiting 50% of Cacna2d1/GBP binding, 3H-GBP 4.5 nM, 4° C.
T1 construct: 293 cells were transfected with the human Cacna2d1 expression plasmid pRK/hCacna2d1 constructed in paragraph a); expressed in transfected cells; membrane fraction
Procedure: 293 cells were transfected with the human Cacna2d1 expression plasmid pRK/hCacna2d1 constructed in paragraph a), and a cell line stably expressing human Cacna2d1 was obtained with human Cacna2d1 protein expression as an index. Specifically, 2×10^6 293 cells were inoculated onto a φ6 cm dish and cultured for 12 hours. Then, the cells were cotransfected with 5 μg of pRK/hCacna2d1 and 0.5 μg of a neomycin-resistant gene expression plasmid pSV2neo (Clontech) using a transfection reagent Lipofectamine Plus (Invitrogen Corp.) according to the protocol provided for the reagent.
The human Cacna2d1-expressing 293 cells obtained in paragraph b) were cultured in large scale in DMEM (Invitrogen Corp.) supplemented with 10% fetal bovine serum (Cansera International, Inc.) and 500 μg/ml G418 (Invitrogen Corp.), and the cells were collected. A protease inhibitor (Complete EDTA free (Roche Applied Science)) was added in an amount recommended for the reagent to a binding assay buffer (10 mM MOPS (pH 7.4), 10 mM HEPES (pH 7.4), 100 mM NaCl) to prepare a membrane fraction preparation buffer. The collected cells were washed with the membrane fraction preparation buffer and then homogenized using an ultrasonicator. Then, the homogenate was centrifuged at 12,000 rpm at 4° C. for 1 hour using a centrifuge. The supernatant was discarded, and the precipitate was suspended in the membrane fraction preparation buffer. The procedure from the ultrasonication using a ultrasonicator to the suspension of the precipitate after centrifugation was further repeated three times, and the obtained suspension was used as a human Cacna2d1-expressing cell membrane fraction. The total level of proteins contained in the membrane fraction was calculated from UV absorbance at a wavelength of 280 nm.
The human Cacna2d1-expressing cell membrane fraction and GBP labeled with a radioisotope ^3H (hereinafter, referred to as ^3H-GBP; Tocris Cookson Ltd.) were diluted with a binding assay buffer (10 mM MOPS (pH 7.4), 10 mM HEPES (pH 7.4), 100 mM NaCl) at a final concentration of 2.5 mg/ml in terms of the total protein level and a final ^3H-GBP concentration of 4.5 nM, respectively, to prepare 120 μl of a reaction solution, which was in turn left standing at 4° C. for 3 hours. This reaction product was added to wells of a filter plate (UniFilter 350 GF/B (Whatman)) and filtered through the filter. Then, a washing procedure involving the addition of 350 μl of a binding assay buffer (10 mM MOPS (pH 7.4), 10 mM HEPES (pH 7.4), 100 mM NaCl) and filtration through the filter was repeated three times. The filter plate was thoroughly dried, and the underside was sealed. After addition of 50 μl of Microscint 20 (PerkinElmer Inc.), the upper surface was also sealed, and radiation derived from the radioisotope ^3H remaining on the filter was counted using TopCount (PerkinElmer Inc.). From the obtained value, a value obtained by adding unlabeled GBP (SIGMA-ALDRICH INC.) at a final concentration of 20 μM to the present assay was subtracted as that derived from nonspecific adsorption, and the obtained value was used as the specific binding level of ^3H-GBP to Cacna2d1 (unit: “count”).
Each test compound was added at various concentrations to the Cacna2d1/GBP binding reaction detection assay constructed in paragraph a), and the binding level was measured by the method described in paragraph a). Then, with the Cacna2d1/GBP specific binding level obtained by the addition of the compound at a concentration of x nM defined as “binding level [x]” and the Cacna2d1/GBP binding inhibitory rate thereagainst defined as “inhibitory rate [x]”, the inhibitory rate (%) was determined based on the following equation: Inhibitory rate [x](%)=(1−(binding level [x]/binding level))×100, wherein the binding level refers to the binding level of ^3H-GBP obtained without the addition of the compound.
The inhibitory rate was plotted against the concentration.

[2] = system: mice suffering from mechanical hyperalgesia; test: Mechanical hyperalgesia assay (von Frey filament pain score); assay type: in vivo; settings: oral administration, dose that offers 50% improvement relative to the pain score of vehicle-administered group
Procedure: In the present invention, mice suffering from mechanical hyperalgesia were used in evaluation.
The mice were acclimatized for 30 minutes in a plastic cage for measurement. Then, the test compound was orally administered to the mice, which were in turn evaluated for mechanical hyperalgesia at a measurement time predetermined by a person in charge of the test. The evaluation of mechanical hyperalgesia was conducted by a partial modification of the method of Takasaki et al. (Pain 86 95-101, 2000) to confirm the effect of the test compound on mechanical hyperalgesia. Specifically, mechanical hyperalgesia was evaluated by assessing, based on scores according to the following criteria, behavior induced by pressing 1.4 g of von Frey filament onto the sole of the animal:
0: no response, 1: withdrawal from von Frey filament, and 2: shaking or licking of the hind paw immediately after the stimulation.
In one measurement, 6 stimulations were given to the mice, and the total score was used as a pain score.
The test compound was evaluated by calculating ID50, which is the dose of the compound that offers 50% improvement relative to the pain score of a vehicle-administered group.

[3] = system: painful diabetic neuropathy; settings: patients' own evaluations; Non-Patent Document 4; cited from earlier work
postherpetic neuralgia = settings: patients' own evaluations; Non-Patent Document 3; cited from earlier work

T1 sequence (P54289 25-1091 isoform P54289-2 limits assumed): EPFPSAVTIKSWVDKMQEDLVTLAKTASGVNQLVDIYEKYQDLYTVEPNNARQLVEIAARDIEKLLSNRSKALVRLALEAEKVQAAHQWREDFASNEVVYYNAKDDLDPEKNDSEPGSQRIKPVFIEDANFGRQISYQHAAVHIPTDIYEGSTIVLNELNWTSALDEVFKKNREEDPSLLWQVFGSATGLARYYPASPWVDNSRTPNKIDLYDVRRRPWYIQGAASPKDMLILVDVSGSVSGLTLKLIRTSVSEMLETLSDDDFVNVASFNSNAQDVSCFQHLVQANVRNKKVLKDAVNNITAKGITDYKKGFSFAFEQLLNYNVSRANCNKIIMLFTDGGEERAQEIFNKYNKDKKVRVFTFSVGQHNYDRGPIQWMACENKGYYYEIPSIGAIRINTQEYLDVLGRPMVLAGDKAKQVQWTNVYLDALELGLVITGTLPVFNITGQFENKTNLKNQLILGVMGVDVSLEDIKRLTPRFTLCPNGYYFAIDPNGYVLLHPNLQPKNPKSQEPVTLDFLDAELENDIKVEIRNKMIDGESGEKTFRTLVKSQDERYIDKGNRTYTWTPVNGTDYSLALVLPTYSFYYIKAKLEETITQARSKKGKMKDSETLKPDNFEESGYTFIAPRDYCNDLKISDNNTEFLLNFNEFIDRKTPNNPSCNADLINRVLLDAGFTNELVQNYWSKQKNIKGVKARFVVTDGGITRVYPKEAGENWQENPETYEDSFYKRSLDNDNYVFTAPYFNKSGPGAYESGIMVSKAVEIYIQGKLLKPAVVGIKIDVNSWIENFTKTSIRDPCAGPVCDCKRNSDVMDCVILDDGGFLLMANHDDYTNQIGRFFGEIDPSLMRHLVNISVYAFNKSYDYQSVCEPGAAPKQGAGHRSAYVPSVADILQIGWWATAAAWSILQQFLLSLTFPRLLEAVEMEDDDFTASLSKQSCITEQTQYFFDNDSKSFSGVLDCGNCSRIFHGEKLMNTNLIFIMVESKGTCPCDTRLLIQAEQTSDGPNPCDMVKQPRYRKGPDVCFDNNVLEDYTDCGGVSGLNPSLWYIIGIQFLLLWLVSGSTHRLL

SMILES	IC50 ([1]; IC50 (nM)) [nM]	also measured
CC1C=C[C@@H]2[C@H]1C[C@@]2(CN)CC(=O)O (mixture of isomers) [Example 17, (±)-[(1S,5R,6R)-6-aminomethyl-2-methylbicyclo[3.2.0]hept-3-en-6-yl]acetic acid]	120	–
CCC1=C[C@H]2[C@@H](C1)C[C@@]2(CN)CC(=O)O (single isomer, unassigned) [Example 23]	41	–
CCCC1=C[C@H]2[C@@H](C1)C[C@@]2(CN)CC(=O)O (racemic) [Example 9, (±)-[(1S,5R,6R)-6-aminomethyl-3-propylbicyclo[3.2.0]hept-3-en-6-yl]acetic acid]	32	–
C=CCC1=C[C@H]2[C@@H](C1)C[C@@]2(CN)CC(=O)O (racemic) [Example 15, (±)-[(1S,5R,6R)-6-aminomethyl-3-allylbicyclo[3.2.0]hept-3-en-6-yl]acetic acid]	73	–
CC(=O)OCC1=C[C@H]2[C@@H](C1)C[C@@]2(CN)CC(=O)O (racemic) [Example 18, (±)-[(1R,5R,6R)-3-(acetoxymethyl)-6-(aminomethyl)bicyclo[3.2.0]hept-3-en-6-yl]acetic acid]	–	IC50 ([1]; read-out: IC50): 670 nM
CCC1=C[C@@H]2[C@H](C1)C[C@]2(CN)CC(=O)O [Example 22, [(1R,5S,6S)-6-aminomethyl-3-ethylbicyclo[3.2.0]hept-3-en-6-yl]acetic acid p-toluenesulfonate]	10	–
CCCCC1=C[C@H]2[C@@H](C1)C[C@@]2(CN)CC(=O)O (racemic) [Example 10, (±)-[(1S,5R,6R)-6-aminomethyl-3-butylbicyclo[3.2.0]hept-3-en-6-yl]acetic acid]	28	–
Cl.NC[C@]1(CC(=O)O)C[C@H]2CC=C[C@H]21 [Example 6, [(1R,5S,6S)-6-(aminomethyl)bicyclo[3.2.0]hept-3-en-6-yl]acetic acid benzenesulfonate]	26	melting point: 161 to 162 °C
NC[C@@]1(CC(=O)O)C[C@@H]2CC=C[C@@H]21 (racemic) [Example 1, (±)-[(1S,5R,6R)-6-(aminomethyl)bicyclo[3.2.0]hept-3-en-6-yl]acetic acid]	51	–
NC[C@]1(CC(=O)O)C[C@H]2CC=C[C@H]21 [Example 5, [(1R,5S,6S)-6-(aminomethyl)bicyclo[3.2.0]hept-3-en-6-yl]acetic acid hydrochloride]	24	–
CCC1=C[C@H]2[C@@H](C1)C[C@@]2(CN)CC(=O)O (racemic) [Example 8, (±)-[(1S,5R,6R)-6-aminomethyl-3-ethylbicyclo[3.2.0]hept-3-en-6-yl]acetic acid]	28	–
CSCC1=C[C@H]2[C@@H](C1)C[C@@]2(CN)CC(=O)O (racemic) [Example 24, (±)-{(1R,5R,6R)-6-aminomethyl-3-[(methylthio)methyl]bicyclo[3.2.0]hept-3-en-6-yl}acetic acid]	85	–
CC1=C(C)[C@H]2[C@@H](C1)C[C@@]2(CN)CC(=O)O (racemic) [Example 20, (±)-[(1S,5R,6R)-6-aminomethyl-3,4-dimethylbicyclo[3.2.0]hept-3-en-6-yl]acetic acid p-toluenesulfonate]	100	–
C[C@]12C=CC[C@H]1C[C@]2(CN)CC(=O)O (racemic) [Example 16, (±)-[(1S,5R,6S)-6-aminomethyl-5-methylbicyclo[3.2.0]hept-3-en-6-yl]acetic acid]	65	–
NC[C@]1(CC(=O)O)C[C@H]2CC=C[C@H]21 [Example 2, [(1R,5S,6S)-6-(aminomethyl)bicyclo[3.2.0]hept-3-en-6-yl]acetic acid]	27	ID50 [2]: 10.4 mg/kg
CC1=C[C@H]2[C@@H](C1)C[C@@]2(CN)CC(=O)O (racemic) [Example 7, (±)-[(1S,5R,6R)-6-aminomethyl-3-methylbicyclo[3.2.0]hept-3-en-6-yl]acetic acid]	36	–
CC(C)C1=C[C@H]2[C@@H](C1)C[C@@]2(CN)CC(=O)O (racemic) [Example 11, (±)-[(1S,5R,6R)-6-aminomethyl-3-isopropylbicyclo[3.2.0]hept-3-en-6-yl]acetic acid]	89	–
CCC(C)C1=CC2C(C1)CC2(CN)CC(=O)O (mixture of isomers) [Example 13, (±)-[(1S,5R,6R)-6-aminomethyl-3-sec-bicyclo[3.2.0]hept-3-en-6-yl]acetic acid]	200	–
CCC1=C[C@H]2[C@@H](C1)C[C@@]2(CNO)CC(=O)O.Cl (racemic)	–	melting point: 98 to 99 °C
CC(C)C[C@H](CN)CC(=O)O [pregabalin]	–	efficacy in the treatment of painful diabetic neuropathy [3]: approximately 50%
NCC1(CC(=O)O)CCCCC1 [gabapentine]	–	efficacy in the treatment of postherpetic neuralgia (postherpetic neuralgia): approximately 60%
NC[C@@]1(CC(=O)O)C[C@@H]2CC(C3CCCC3)=C[C@@H]21 (racemic) [Example 14, (±)-[(1S,5R,6R)-6-aminomethyl-3-cyclopentylbicyclo[3.2.0]hept-3-en-6-yl]acetic acid]	55	–
CCC1=C[C@@H]2[C@H](C1)C[C@]2(CN)CC(=O)O (single isomer, unassigned) [Example 21]	14	–
CCC1=C[C@@H]2[C@H](C1)C[C@]2(CN)CC(=O)O [Example 31, [(1R,5S,6S)-6-(aminomethyl)-3-ethylbicyclo[3.2.0]hept-3-en-6-yl]acetic acid benzenesulfonate]	14	–
CC(C)CC1=C[C@H]2[C@@H](C1)C[C@@]2(CN)CC(=O)O (racemic) [Example 12, (±)-[(1S,5R,6R)-6-aminomethyl-3-isobutylbicyclo[3.2.0]hept-3-en-6-yl]acetic acid]	32	–
